Assay results as given in patent publication US20230135152A1 (ACURASTEM INCORPORATED, priority 2020, published 2023).
pEC50: −log10 of the molar value.

Key:
PIKFYVE [1] = target: T1, PIKFYVE (Homo sapiens, UniProt Q9Y2I7); test: PIKFYVE assay (luciferase ADP-Glo kinase assay, Promega); format: biochemical; details: Table 3
Method in brief: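 Kinase activity measured with a luciferase-based ADP-Glo read-out, which quantifies ADP formed by the enzyme.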

PIKFYVE [2] = target: T1, PIKFYVE; test: Cell-based Pikfyve inhibition activity assay (EEA1 staining, mean vesicle size in BJ fibroblast cells); details: Table 4, 4 hours treatment, 3 μM Apilimod = 100% inhibition
Method in brief: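 BJ fibroblasts treated 4 h at 37° C with eleven 3-fold doses (0.03-3000 nM), then fixed and stained for EEA1. Confocal images (20×, 16 tiles/well) analysed for mean vesicle size. Normalised to 0.5% DMSO (0%) and 3 μM apilimod (100%); dose-response fitted with variable slope.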

T1 sequence (Q9Y2I7 whole entry): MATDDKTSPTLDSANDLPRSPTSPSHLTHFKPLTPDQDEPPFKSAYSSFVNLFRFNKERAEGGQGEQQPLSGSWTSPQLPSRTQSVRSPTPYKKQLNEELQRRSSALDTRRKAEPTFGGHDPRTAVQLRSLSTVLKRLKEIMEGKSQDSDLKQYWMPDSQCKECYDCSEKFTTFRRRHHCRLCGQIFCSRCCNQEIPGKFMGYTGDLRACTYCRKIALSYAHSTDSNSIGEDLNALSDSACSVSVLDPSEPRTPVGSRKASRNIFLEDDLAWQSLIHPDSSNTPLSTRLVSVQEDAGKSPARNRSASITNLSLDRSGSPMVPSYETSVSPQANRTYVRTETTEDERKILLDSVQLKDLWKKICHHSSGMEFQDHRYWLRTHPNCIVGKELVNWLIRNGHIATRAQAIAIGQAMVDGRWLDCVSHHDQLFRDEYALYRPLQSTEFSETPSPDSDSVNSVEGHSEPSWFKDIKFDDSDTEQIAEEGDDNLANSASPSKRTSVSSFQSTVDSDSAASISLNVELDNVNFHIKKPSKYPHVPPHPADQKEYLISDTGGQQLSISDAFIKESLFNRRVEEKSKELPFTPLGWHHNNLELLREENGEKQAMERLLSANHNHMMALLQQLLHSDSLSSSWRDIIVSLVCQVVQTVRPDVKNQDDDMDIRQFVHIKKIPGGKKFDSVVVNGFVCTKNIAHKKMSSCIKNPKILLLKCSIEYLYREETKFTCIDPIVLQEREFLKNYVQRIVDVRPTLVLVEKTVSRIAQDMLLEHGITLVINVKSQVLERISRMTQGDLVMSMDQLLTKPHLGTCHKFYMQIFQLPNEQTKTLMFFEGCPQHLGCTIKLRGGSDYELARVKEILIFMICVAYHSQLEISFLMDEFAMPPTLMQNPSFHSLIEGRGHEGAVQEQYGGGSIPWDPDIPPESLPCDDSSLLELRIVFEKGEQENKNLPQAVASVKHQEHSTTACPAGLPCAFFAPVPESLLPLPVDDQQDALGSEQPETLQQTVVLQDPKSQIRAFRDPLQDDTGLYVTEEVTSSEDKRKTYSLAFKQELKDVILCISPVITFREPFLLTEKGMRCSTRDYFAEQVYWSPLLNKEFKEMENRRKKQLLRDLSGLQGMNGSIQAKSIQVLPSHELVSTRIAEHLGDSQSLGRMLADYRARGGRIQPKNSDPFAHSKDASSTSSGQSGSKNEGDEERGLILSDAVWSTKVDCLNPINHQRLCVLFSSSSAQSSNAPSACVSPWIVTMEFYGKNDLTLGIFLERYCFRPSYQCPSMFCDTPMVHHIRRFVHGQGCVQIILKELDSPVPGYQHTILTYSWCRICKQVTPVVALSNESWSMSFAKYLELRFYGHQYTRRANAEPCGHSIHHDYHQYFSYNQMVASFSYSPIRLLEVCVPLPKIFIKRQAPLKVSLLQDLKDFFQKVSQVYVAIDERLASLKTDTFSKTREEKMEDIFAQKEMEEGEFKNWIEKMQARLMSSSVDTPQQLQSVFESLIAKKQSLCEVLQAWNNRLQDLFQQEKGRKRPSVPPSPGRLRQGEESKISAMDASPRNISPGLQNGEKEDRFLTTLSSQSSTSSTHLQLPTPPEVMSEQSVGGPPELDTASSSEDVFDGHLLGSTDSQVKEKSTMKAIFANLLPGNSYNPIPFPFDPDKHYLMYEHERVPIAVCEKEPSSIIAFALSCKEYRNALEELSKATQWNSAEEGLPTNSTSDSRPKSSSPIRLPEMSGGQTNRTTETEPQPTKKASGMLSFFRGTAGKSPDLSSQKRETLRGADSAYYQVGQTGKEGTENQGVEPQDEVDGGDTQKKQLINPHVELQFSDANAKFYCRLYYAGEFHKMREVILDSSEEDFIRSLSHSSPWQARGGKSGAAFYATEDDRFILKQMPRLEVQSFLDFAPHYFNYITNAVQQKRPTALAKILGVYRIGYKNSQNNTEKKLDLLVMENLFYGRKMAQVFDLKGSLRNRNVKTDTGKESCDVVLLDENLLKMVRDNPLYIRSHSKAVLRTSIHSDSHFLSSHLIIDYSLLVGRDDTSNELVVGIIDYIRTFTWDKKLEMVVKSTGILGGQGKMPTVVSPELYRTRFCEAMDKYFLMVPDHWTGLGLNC

Structure (SMILES) | IC50 (PIKFYVE [1]) | pEC50 (PIKFYVE [2])
Cc1cc(-c2ccccc2)nn1-c1cc(N2CCOCC2)nc(OCCc2cnn(C)c2)n1 [Compound 127, 4-(2-(2-(1-methyl-1H-pyrazol-4-yl)ethoxy)-6-(5-methyl-3-phenyl-1H-pyrazol-1-yl)pyrimidin-4-yl)morpholine] | < 3 nM | 7.00 to 7.70
Cn1cc(CCOc2nc(N3CCOCC3)cc(-n3ccc(COc4ccccc4)n3)n2)cn1 [Compound 128, 4-(2-(2-(1-methyl-1H-pyrazol-4-yl)ethoxy)-6-(3-(phenoxymethyl)-1H-pyrazol-1-yl)pyrimidin-4-yl)morpholine] | 3 to 10 nM | 5.30 to 6.30
Cn1cc(CCOc2nc(N3CCOCC3)cc(-n3ccc(OCc4ccccc4F)n3)n2)cn1 [Compound 129, 4-(6-(3-((2-fluorobenzyl)oxy)-1H-pyrazol-1-yl)-2-(2-(1-methyl-1H-pyrazol-4-yl)ethoxy)pyrimidin-4-yl)morpholine] | 3 to 10 nM | 6.30 to 7.00
COCC(O)c1nc(N2CCOCC2)cc(-n2ccc(-c3cccc(C)c3)n2)n1 (centres unmarked) [Compound 155, 2-methoxy-1-(4-morpholino-6-(3-(m-tolyl)-1H-pyrazol-1-yl)pyrimidin-2-yl)ethan-1-ol] | 3 to 10 nM | 6.30 to 7.00
Cc1cccc(-c2ccn(-c3cc(N4CCOCC4)nc(OCC(=O)c4ccccc4)n3)n2)c1 [Compound 169] | 10 to 100 nM | 6.30 to 7.00
Cn1cc(CCOc2nc(N3CCOCC3)cc(-n3ccc(C(=O)N4CCCCC4)n3)n2)cn1 [Compound 172, (1-(2-(2-(1-methyl-1H-pyrazol-4-yl)ethoxy)-6-morpholinopyrimidin-4-yl)-1H-pyrazol-3-yl)(piperidin-1-yl)methanone] | 100 to 5000 nM | < 5.30
Cn1cc(CCOc2nccc(N3CCOCC3)n2)cn1 [Compound 173, 4-(2-(2-(1-methyl-1H-pyrazol-4-yl)ethoxy)pyrimidin-4-yl)morpholine] | > 5000 nM | < 5.30
Cc1cccc(-c2ccn(-c3cc(N4CCOCC4)nc(OCC#N)n3)n2)c1 [Compound 174, 2-((4-morpholino-6-(3-(m-tolyl)-1H-pyrazol-1-yl)pyrimidin-2-yl)oxy)acetonitrile] | 3 to 10 nM | 6.30 to 7.00
Cc1cccc(-c2ccn(-c3cc(N4CCOCC4)nc(OCCCC#N)n3)n2)c1 [Compound 175, 4-((4-morpholino-6-(3-(m-tolyl)-1H-pyrazol-1-yl)pyrimidin-2-yl)oxy)butanenitrile] | < 3 nM | 7.00 to 7.70
Cc1cccc(-c2ccn(-c3cc(N4CCOCC4)nc(OCC4(C)COC4)n3)n2)c1 [Compound 176, 4-(2-((3-methyloxetan-3-yl)methoxy)-6-(3-(m-tolyl)-1H-pyrazol-1-yl)pyrimidin-4-yl)morpholine] | < 3 nM | 6.30 to 7.00
COC(Cc1ccccc1)c1nc(N2CCOCC2)cc(-n2ccc(-c3ccccc3)n2)n1 (centres unmarked) [Compound 177, 4-(2-(1-methoxy-2-phenylethyl)-6-(3-phenyl-1H-pyrazol-1-yl)pyrimidin-4-yl)morpholine] | 10 to 100 nM | 5.30 to 6.30
Cn1cc(CCOc2nc(N3CCOCC3)cc(-n3ccc(C(=O)O)n3)n2)cn1 [Compound 178, 1-(2-(2-(1-methyl-1H-pyrazol-4-yl)ethoxy)-6-morpholinopyrimidin-4-yl)-1H-pyrazole-3-carboxylic acid] | 100 to 5000 nM | < 5.30
Cn1cc(CCOc2nc(N3CCOCC3)cc(-n3ccc(-c4cccc(CO)c4)n3)n2)cn1 [Compound 179, (3-(1-(2-(2-(1-methyl-1H-pyrazol-4-yl)ethoxy)-6-morpholinopyrimidin-4-yl)-1H-pyrazol-3-yl)phenyl)methanol] | < 3 nM | > 7.70
Cc1cccc(-c2ccn(-c3cc(N4CCOCC4)nc(OCCc4cnn(CCO)c4)n3)n2)c1 [Compound 180, 2-(4-(2-((4-morpholino-6-(3-(m-tolyl)-1H-pyrazol-1-yl)pyrimidin-2-yl)oxy)ethyl)-1H-pyrazol-1-yl)ethan-1-ol] | < 3 nM | 7.00 to 7.70
N#CCC(O)c1nc(N2CCOCC2)cc(-n2ccc(-c3ccccc3)n2)n1 (centres unmarked) [Compound 181, 3-hydroxy-3-(4-morpholino-6-(3-phenyl-1H-pyrazol-1-yl)pyrimidin-2-yl)propanenitrile] | 10 to 100 nM | 5.30 to 6.30
COC(CC#N)c1nc(N2CCOCC2)cc(-n2ccc(-c3ccccc3)n2)n1 (centres unmarked) [Compound 182, 3-methoxy-3-(4-morpholino-6-(3-phenyl-1H-pyrazol-1-yl)pyrimidin-2-yl)propanenitrile] | 10 to 100 nM | 5.30 to 6.30
OC(c1ccccc1)c1nc(N2CCOCC2)cc(-n2ccc(-c3ccccc3)n2)n1 (centres unmarked) [Compound 183, (4-morpholino-6-(3-phenyl-1H-pyrazol-1-yl)pyrimidin-2-yl)(phenyl)methanol] | 10 to 100 nM | 6.30 to 7.00

Structure (SMILES) | IC50 (PIKFYVE [1]) | pEC50 (PIKFYVE [2])
Cn1cc(C(O)c2nc(N3CCOCC3)cc(-n3ccc(-c4ccccc4)n3)n2)cn1 (centres unmarked) [Compound 184, (1-methyl-1H-pyrazol-4-yl)(4-morpholino-6-(3-phenyl-1H-pyrazol-1-yl)pyrimidin-2-yl)methanol] | 10 to 100 nM | 6.30 to 7.00
Cc1cccc(-c2ccn(-c3cc(N4CCOCC4)nc(NC(=O)Cc4cnn(C)c4)n3)n2)c1 [Compound 186, 2-(1-methyl-1H-pyrazol-4-yl)-N-(4-morpholino-6-(3-(m-tolyl)-1H-pyrazol-1-yl)pyrimidin-2-yl)acetamide] | < 3 nM | 6.30 to 7.00
Cc1cccc(-c2ccn(-c3cc(N4CCOCC4)nc(NC(=O)CCc4cnn(C)c4)n3)n2)c1 [Compound 187] | < 3 nM | 7.00 to 7.70
Cc1cccc(-c2ccn(-c3cc(N4CCOCC4)nc(NC(=O)CC4CC4)n3)n2)c1 [Compound 188, 2-cyclopropyl-N-(4-morpholino-6-(3-(m-tolyl)-1H-pyrazol-1-yl)pyrimidin-2-yl)acetamide] | < 3 nM | 6.30 to 7.00
Cn1cc(CCOc2nc(N3CCOCC3)cc(-n3ccc(-c4ccccc4)n3)n2)cn1 [Compound 189, 4-(2-(2-(1-methyl-1H-pyrazol-4-yl)ethoxy)-6-(3-phenyl-1H-pyrazol-1-yl)pyrimidin-4-yl)morpholine] | < 3 nM | 7.00 to 7.70
Cc1cccc(-c2ccn(-c3cc(N4CCOCC4)nc(OCCc4cnn(C)c4)n3)n2)n1 [Compound 190, 4-(2-(2-(1-methyl-1H-pyrazol-4-yl)ethoxy)-6-(3-(6-methylpyridin-2-yl)-1H-pyrazol-1-yl)pyrimidin-4-yl)morpholine] | 3 to 10 nM | 6.30 to 7.00
Cn1cc(CCOc2nc(N3CCOCC3)cc(-n3ccc(-c4ccncc4)n3)n2)cn1 [Compound 191, 4-(2-(2-(1-methyl-1H-pyrazol-4-yl)ethoxy)-6-(3-(pyridin-4-yl)-1H-pyrazol-1-yl)pyrimidin-4-yl)morpholine] | 10 to 100 nM | < 5.30
CN(C)Cc1cccc(-c2ccn(-c3cc(N4CCOCC4)nc(OCCc4cnn(C)c4)n3)n2)c1 [Compound 193, N,N-dimethyl-1-(3-(1-(2-(2-(1-methyl-1H-pyrazol-4-yl)ethoxy)-6-morpholinopyrimidin-4-yl)-1H-pyrazol-3-yl)phenyl)methanamine] | < 3 nM | 6.30 to 7.00
Cn1cc(CCOc2nc(N3CCOCC3)cc(-n3ccc(-c4ccccn4)n3)n2)cn1 [Compound 194, 4-(2-(2-(1-methyl-1H-pyrazol-4-yl)ethoxy)-6-(3-(pyridin-2-yl)-1H-pyrazol-1-yl)pyrimidin-4-yl)morpholine] | 3 to 10 nM | 6.30 to 7.00
Cn1cc(CCOc2nc(N3CCOCC3)cc(-n3ccc(-c4cccc(F)c4)n3)n2)cn1 [Compound 195, 4-(6-(3-(3-fluorophenyl)-1H-pyrazol-1-yl)-2-(2-(1-methyl-1H-pyrazol-4-yl)ethoxy)pyrimidin-4-yl)morpholine] | < 3 nM | 7.00 to 7.70
Cc1ccc(C)c(-c2ccn(-c3cc(N4CCOCC4)nc(OCCc4cnn(C)c4)n3)n2)c1 [Compound 197, 4-(6-(3-(2,5-dimethylphenyl)-1H-pyrazol-1-yl)-2-(2-(1-methyl-1H-pyrazol-4-yl)ethoxy)pyrimidin-4-yl)morpholine] | 3 to 10 nM | 6.30 to 7.00
COCc1cccc(-c2ccn(-c3cc(N4CCOCC4)nc(OCCc4cnn(C)c4)n3)n2)c1 [Compound 200, 4-(6-(3-(3-(methoxymethyl)phenyl)-1H-pyrazol-1-yl)-2-(2-(1-methyl-1H-pyrazol-4-yl)ethoxy)pyrimidin-4-yl)morpholine] | < 3 nM | > 7.70
Cn1nccc1CC(O)c1nc(N2CCOCC2)cc(-n2ccc(-c3ccccc3)n2)n1 (centres unmarked) [Compound 201, 2-(1-methyl-1H-pyrazol-5-yl)-1-(4-morpholino-6-(3-phenyl-1H-pyrazol-1-yl)pyrimidin-2-yl)ethan-1-ol] | 10 to 100 nM | 5.30 to 6.30
Cc1cc(-c2ccccc2)nn1-c1cc(N2CCOCC2)nc(N)n1 [Compound 202, 4-(5-methyl-3-phenyl-1H-pyrazol-1-yl)-6-morpholinopyrimidin-2-amine] | 100 to 5000 nM | 5.30 to 6.30
Cn1cc(CCOc2nc(N3CCOCC3)cc(-n3ccc(-c4c[nH]c5ccccc45)n3)n2)cn1 [Compound 203, 4-(6-(3-(1H-indol-3-yl)-1H-pyrazol-1-yl)-2-(2-(1-methyl-1H-pyrazol-4-yl)ethoxy)pyrimidin-4-yl)morpholine] | 10 to 100 nM | 6.30 to 7.00
CO[C@@H](CO)c1nc(N2CCOCC2)cc(-n2nc(-c3ccccc3)cc2C)n1 [Compound 204, (R)-2-methoxy-2-(4-(5-methyl-3-phenyl-1H-pyrazol-1-yl)-6-morpholinopyrimidin-2-yl)ethan-1-ol] | 10 to 100 nM | 5.30 to 6.30
Cc1cccc(-c2cc(CN(C)C)n(-c3cc(N4CCOCC4)nc(OCC4(C)COC4)n3)n2)c1 [Compound 206, N,N-dimethyl-1-(1-(2-((3-methyloxetan-3-yl)methoxy)-6-morpholinopyrimidin-4-yl)-3-(m-tolyl)-1H-pyrazol-5-yl)methanamine] | 3 to 10 nM | 5.30 to 6.30
